Holding throughout (format): in vivo
Test [1] concerns Ctenocephalides felis. Nature of the test: Ctenocephalides felis in vitro contact test with adult cat fleas. The conditions noted are these: application rate 5 μg/cm^2 (=500 g/ha); after 48 h; fleas dead or moribund. The protocol: Ctenocephalides felis—In Vitro Contact Tests with Adult Cat Fleas
For the coating of the test tubes, 9 mg of active compound are first dissolved in 1 ml of acetone p.a. and then diluted to the desired concentration with acetone p.a. 250 μl of the solution are distributed homogeneously on the inner walls and the base of a 25 ml glass tube by turning and rocking on an orbital shaker (rocking rotation at 30 rpm for 2 h). With 900 ppm of active compound solution and internal surface area 44.7 cm^2, given homogeneous distribution, an area-based dose of 5 μg/cm^2 is achieved.
After the solvent has evaporated off, the tubes are populated with 5-10 adult cat fleas (Ctenocephalides felis), sealed with a perforated plastic lid and incubated in a horizontal position at room temperature and ambient humidity. After 48 h, efficacy is determined. To this end, the tubes are stood upright and the fleas are knocked to the base of the tube. Fleas which remain motionless at the base or move in an uncoordinated manner are considered to be dead or moribund.
100% efficacy means that all the fleas were dead or moribund. 0% efficacy means that no fleas were harmed.

The subject of test [2] is Ctenocephalides felis. Nature of the test: Ctenocephalides felis oral test. The conditions noted are these: 48 h, application rate 100 ppm, in citrated cattle blood, after 2 days, read-out: efficacy (kill in %). An outline of the steps:
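Adult unfed cat fleas (~20 per chamber) fed through parafilm membrane on citrated cattle blood containing compound (DMSO formulation diluted in blood to test concentration). Kill (%) scored after 2 days; 100% = all fleas dead, 0% = none.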

For test [3], the system named is Myzus persicae. Nature of the test: Myzus persicae spray test. The conditions noted are these: foliar, 120 h, application rate 100 g/ha, Chinese cabbage leaf discs, after 5 days, read-out: efficacy. In a few lines:
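Chinese cabbage leaf discs infested with all stages of Myzus persicae were sprayed with compound in acetone/DMF, diluted in water containing 1000 ppm emulsifier. Efficacy in % assessed after 5 days: 100% all aphids killed, 0% none killed.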

The test system of a further test is Phaedon cochleariae. Nature of the test: Phaedon cochleariae spray test. The conditions noted are these: foliar, 168 h, application rate 100 g/ha, Chinese cabbage leaf discs, after 7 days, read-out: efficacy. In a few lines:
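Chinese cabbage leaf discs sprayed with compound formulated in acetone/DMF and emulsifier-containing water, then infested with mustard beetle larvae after drying. Efficacy read after 7 days as % larvae killed.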

The test system of test [4] is Myzus persicae. Nature of the test: Myzus persicae drench test (MYZUPE D). The conditions noted are these: soil, 240 h, 10 dat, read-out: % Efficacy. The protocol:
Myzus persicae—Drench Test (MYZUPE D)
Solvent: 7 parts by weight of dimethylformamide
Emulsifier: 2 part by weight of alkylaryl polyglycol ether
To produce a suitable active compound preparation, 1 part by weight of active compound is mixed with the specified amounts of solvent and emulsifier, and the concentrate is diluted with water to the desired concentration, it being necessary to include the volume of soil which is drenched in the calculation. It should be ensured that a concentration of 40 ppm of emulsifier in the soil is not exceeded. To produce further test concentrations, water is used for dilution.
Savoy cabbage (Brassica oleracea) in pots with soil and infested by all stages of the green peach aphid (Myzus persicae) is watered with an active compound preparation of the desired concentration.
After the desired period of time, the efficacy in % is determined. 100% means that all the aphids have been killed; 0% means that no aphids have been killed.

In another test the test system is Spodoptera frugiperda. Nature of the test: Spodoptera frugiperda test on maize plants (SPODFR S). The conditions noted are these: 6 dai, read-out: % Efficacy. The protocol: Spodoptera frugiperda Test (SPODFR S)
Solvent: 14 parts by weight of dimethylformamide
Emulsifier: 2 parts by weight of alkylaryl polyglycol ether
To produce a suitable active compound formulation, 1 part by weight of active compound is dissolved with the stated parts by weight of solvent and emulsifier and made up to the desired concentration with water. To produce further test concentrations, water is used for dilution. In the event that addition of ammonium salts or/and penetrants (rapeseed oil methyl ester) is required, these are each pipetted in at a concentration of 1000 ppm after the finished formulation solution has been diluted.
Maize plants (Zea mays) are sprayed with an active compound formulation of the desired concentration and, in each case after 5, 12 and 19 days, populated with 5 caterpillars (L2) of the fall armyworm (Spodoptera frugiperda).
The kill is determined 6 days after the infection. 100% means that all the caterpillars have been killed and 0% means that none of the caterpillars have been killed.

Like-named read-outs stand apart in the source and are kept apart here.

In turn, `CCS(=O)(=O)c1c(-c2nc3cc(C(F)(F)F)cnc3n2C)ncc2cc(Br)ccc12` [Example I-037, 7-Bromo-4-ethylsulfonyl-3-[3-methyl-6-(trifluoromethyl)imidazo[4,5-b]pyridin-2-yl]isoquinoline] returned an efficacy with Ctenocephalides felis [1] of 100%. The pest or weed control at 100 ppm in the test on Ctenocephalides felis [2] came out at 100%. Besides, the pest or weed control at 100 g/ha with Myzus persicae [3] and with Phaedon cochleariae was 100% in each case. Further, the Emax at 4 ppm in the test on Myzus persicae [4] is 90%. The Emax at 0.16 ppm worked out at 70% in the test on Spodoptera frugiperda (120 h, infection 5 dat) and 50% in the test with Spodoptera frugiperda (288 h, infection 12 dat). Besides, the Emax at 0.8 ppm in the test with Spodoptera frugiperda (288 h, infection 12 dat) stood at 100%; in the test with Spodoptera frugiperda (456 h, infection 19 dat), 100%.

Source of the values: patent publication US20230060425A1, “FUSED BICYCLIC HETEROCYCLE DERIVATIVES AS PESTICIDES” (Bayer Aktiengesellschaft, priority 2019, published 2023).
